{"source": "patent US6673827B1", "about": "“Methods of treating fungal infections with inhibitors of NAD synthetase enzyme” (priority 1999, dated 2004)", "key": {"Male CD-1 mice": {"system": "Male CD-1 mice", "experiment": "In vivo toxicity: intraperitoneal (IP) dosage in mice resulting in 50% lethality (LD50)", "details": "single IP dose, observed 14 days"}, "[1]": {"system": "Candida tropicalis ATCC 750", "experiment": "In vitro study of inhibition of growth and lethality against yeast (MIC/MLC susceptibility test), isolate A", "assay_type": "cell-based", "details": "Candida tropicalis, 2nd pair of lines, isolate assigned by line order"}, "[2]": {"system": "Candida albicans KJP-000531594", "experiment": "In vitro study of inhibition of growth and lethality against yeast (MIC/MLC susceptibility test), isolate C", "assay_type": "cell-based", "details": "Candida albicans, 1st pair of lines"}, "[3]": {"system": "Torulopsis glabrata JHC-BC9951635", "experiment": "In vitro study of inhibition of growth and lethality against yeast (MIC/MLC susceptibility test), isolate E", "assay_type": "cell-based", "details": "Torulopsis glabrata, 2nd pair of lines, isolate assigned by line order"}, "[4]": {"system": "Candida tropicalis ATCC 28707", "experiment": "In vitro study of inhibition of growth and lethality against yeast (MIC/MLC susceptibility test), isolate B", "assay_type": "cell-based", "details": "Candida tropicalis, 1st pair of lines, isolate assigned by line order"}, "[5]": {"system": "Cryptococcus neoformans DLB-1027594CNC", "experiment": "In vitro study of inhibition of growth and lethality against yeast (MIC/MLC susceptibility test), isolate G", "assay_type": "cell-based", "details": "Cryptococcus neoformans, 1st pair of lines, isolate assigned by line order"}, "[6]": {"system": "Candida tropicalis (ATCC 28707-amphotericin B-resistant)", "experiment": "Minimum Inhibitory Concentration (MIC) against yeast, broth dilution", "assay_type": "cell-based", "details": "37° C., 20 hours, mean of duplicate"}, "[7]": {"system": "Candida tropicalis (ATCC 750)", "experiment": "Minimum Inhibitory Concentration (MIC) against yeast, broth dilution", "assay_type": "cell-based", "details": "37° C., 20 hours, mean of duplicate"}, "[8]": {"biological_target": "T1, NAD synthetase (recombinant protein from B. subtilis; purified) (Bacillus subtilis, UniProt P08164)", "T1 construct": "made in house", "T1 sequence (P08164 whole entry)": "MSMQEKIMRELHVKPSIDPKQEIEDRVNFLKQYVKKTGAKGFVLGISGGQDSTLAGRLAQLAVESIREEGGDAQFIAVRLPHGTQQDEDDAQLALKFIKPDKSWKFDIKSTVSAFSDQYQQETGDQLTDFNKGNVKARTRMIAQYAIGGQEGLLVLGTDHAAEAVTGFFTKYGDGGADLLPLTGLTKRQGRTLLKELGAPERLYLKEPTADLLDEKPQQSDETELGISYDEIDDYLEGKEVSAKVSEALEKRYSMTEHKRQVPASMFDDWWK", "experiment": "NAD synthetase enzyme inhibition assay (coupled enzymatic assay, HTS)", "assay_type": "biochemical", "details": "table of structures used in the yeast assay (Example 4)", "description": "NAD Synthetase Enzyme Inhibition Assay-Determination of Test Compound Concentrations Providing 50% Inhibition ([…]) of the Maximum Enzyme Rate\nThe potential inhibitory activity of the synthetic compounds was determined by the use of a coupled enzymatic assay. The coupled assay involves two steps as summarized below. [drawing 98]\nThe measurement of inhibitory activities of the test compounds was facilitated by the use of a high through-put screening system (HTS system). The HTS system utilizes an integrated Sagian 2M ORCA robotic system coordinating the functions of a Beckman Biomek 2000 liquid handler and a Molecular Devices SpectraMax Plus spectrophotometer. The 2M ORCA robotic station is responsible for the movement of all hardware and the integration of multiple stations on the worksurface. The Biomek 2000 is programmed to perform all phases of liquid dispensing and mixing. The SpectraMax Plus spectrophotometer is equipped to monitor absorbance in a 96-well plate format.\nThe Biomek 2000 mixes these components utilizing a predefined mixing program. […] The reaction is monitored by measuring the increase in absorbance at 340 nm (NADH). The linear portion of the reaction is monitored for 180 sec. The initial velocity is determined using Softmax Pro, the software supplied with the Molecular Devices SpectrMax Plus spectrophotometer.\nThe test compounds were supplied as a stock solution with a concentration of 50 mM dissolved in 100% dimethyl sulfoxide (DMSO). An initial screen was conducted on all compounds using a 2 or 3 concentration screen. The 2 panel screen used concentrations of 0.2 mM and 0.1 mM for the compounds. The 3 panel screen used concentrations of 0.2 mM, 0.1 mM, and 0.05 mM. […] The IC50 values for each compound were determined graphically from a plot of % inhibition versus […]."}, "[9]": {"system": "Torulopsis glabrata ERH-BC9938274", "experiment": "In vitro study of inhibition of growth and lethality against yeast (MIC/MLC susceptibility test), isolate F", "assay_type": "cell-based", "details": "Torulopsis glabrata, 1st pair of lines, isolate assigned by line order"}, "[10]": {"system": "Cryptococcus neoformans SLP-BC0012854", "experiment": "In vitro study of inhibition of growth and lethality against yeast (MIC/MLC susceptibility test), isolate H", "assay_type": "cell-based", "details": "Cryptococcus neoformans, 2nd pair of lines, isolate assigned by line order"}, "[11]": {"system": "Candida albicans LH-000664533", "experiment": "In vitro study of inhibition of growth and lethality against yeast (MIC/MLC susceptibility test), isolate D", "assay_type": "cell-based", "details": "Candida albicans, 2nd pair of lines, isolate assigned by line order"}, "[12]": {"system": "Candida albicans (ATCC 10231)", "experiment": "Minimum Inhibitory Concentration (MIC) against yeast, broth dilution", "assay_type": "cell-based", "details": "37° C., 20 hours, mean of duplicate"}}, "note": "Values joined by “and” are separate entries in the source; they are usually repeats but may differ in a detail not shown here. Equal entries are not always repeated.", "data": [{"smiles": "C[n+]1cccc(C(=O)OCCCCCCCCn2ccc3cc(OCc4ccccc4)ccc32)c1", "note": "[Compound 769]", "values": [{"measurement": "LD50", "setting": "Male CD-1 mice", "value": 43, "unit": "mg/kg"}, {"measurement": "Minimum Inhibitory Conc. (MIC), 24 hr.", "setting": "[1]; read at 24 hr", "value": 1, "unit": "µg/mL"}, {"measurement": "Minimum Inhibitory Conc. (MIC), 48 hr.", "setting": "[1]; read at 48 hr", "value": 1, "unit": "µg/mL"}, {"measurement": "Minimum Lethal Conc. (MLC)", "setting": "[1]", "value": 2, "unit": "µg/mL"}, {"measurement": "Minimum Inhibitory Conc. (MIC), 24 hr.", "setting": "[2]; read at 24 hr, isolate not given, assigned by line order and MLC of Table 4B", "value": "2 µg/mL and 1 µg/mL"}, {"measurement": "Minimum Inhibitory Conc. (MIC), 48 hr.", "setting": "[2]; read at 48 hr, isolate assigned by line order", "value": "2 µg/mL and 4 µg/mL"}, {"measurement": "Minimum Lethal Conc. (MLC)", "setting": "[2]; isolate assigned by line order", "value": 8, "unit": "µg/mL"}, {"measurement": "Minimum Inhibitory Conc. (MIC), 24 hr.", "setting": "[3]; read at 24 hr", "value": 0.5, "unit": "µg/mL"}, {"measurement": "Minimum Inhibitory Conc. (MIC), 48 hr.", "setting": "[3]; read at 48 hr", "value": 1, "unit": "µg/mL"}, {"measurement": "Minimum Lethal Conc. (MLC)", "setting": "[3]", "value": 1, "unit": "µg/mL"}, {"measurement": "Minimum Inhibitory Conc. (MIC), 24 hr.", "setting": "[4]; read at 24 hr", "value": 0.25, "unit": "µg/mL"}, {"measurement": "Minimum Inhibitory Conc. (MIC), 48 hr.", "setting": "[4]; read at 48 hr", "value": 0.5, "unit": "µg/mL"}, {"measurement": "Minimum Lethal Conc. (MLC)", "setting": "[4]", "value": 2, "unit": "µg/mL"}, {"measurement": "Minimum Inhibitory Conc. (MIC), 48 hr.", "setting": "[5]; read at 48 hr", "value": 0.5, "unit": "µg/mL"}, {"measurement": "Minimum Inhibitory Conc. (MIC), 72 hr.", "setting": "[5]; read at 72 hr", "value": 1, "unit": "µg/mL"}, {"measurement": "Minimum Lethal Conc. (MLC)", "setting": "[5]", "value": 2, "unit": "µg/mL"}, {"measurement": "MIC Candida tropicalis (ATCC 28707)", "setting": "[6]", "value": 0.098, "unit": "µg/mL"}, {"measurement": "MIC Candida tropicalis (ATCC 750)", "setting": "[7]", "value": 0.098, "unit": "µg/mL"}, {"measurement": "IC50 (μg/mL) for Inhibit. of NAD Synthetase", "setting": "[8]", "value": 20, "unit": "µg/mL"}, {"measurement": "Minimum Inhibitory Conc. (MIC), 24 hr.", "setting": "[9]; read at 24 hr", "value": 1, "unit": "µg/mL"}, {"measurement": "Minimum Inhibitory Conc. (MIC), 48 hr.", "setting": "[9]; read at 48 hr", "value": 2, "unit": "µg/mL"}, {"measurement": "Minimum Lethal Conc. (MLC)", "setting": "[9]", "value": 2, "unit": "µg/mL"}, {"measurement": "Minimum Inhibitory Conc. (MIC), 48 hr.", "setting": "[10]; read at 48 hr", "value": "0.5 µg/mL and 1 µg/mL"}, {"measurement": "Minimum Inhibitory Conc. (MIC), 72 hr.", "setting": "[10]; read at 72 hr", "value": "0.5 µg/mL and 1 µg/mL"}, {"measurement": "Minimum Lethal Conc. (MLC)", "setting": "[10]", "value": 2, "unit": "µg/mL"}, {"measurement": "Minimum Inhibitory Conc. (MIC), 24 hr.", "setting": "[11]; read at 24 hr", "value": 1, "unit": "µg/mL"}, {"measurement": "Minimum Inhibitory Conc. (MIC), 48 hr.", "setting": "[11]; read at 48 hr", "value": 2, "unit": "µg/mL"}, {"measurement": "Minimum Lethal Conc. (MLC)", "setting": "[11]", "value": 8, "unit": "µg/mL"}, {"measurement": "MIC Candida albicans (ATCC 10231)", "setting": "[12]", "value": 4.7, "unit": "µg/mL"}]}]}
